Assay results: US7323490B2, “Pyrrole compounds and uses thereof” (Ambit Biosciences Corporation, priority 2003, dated 2008)
Like-named read-outs stand apart in the source and are kept apart here.

Key:
focal cerebral ischemia = conditions: for Infarct Volume: 1 h post, 24 h post MCAo, mean ± SEM; for Infarct Volume / reduction in infarct volume from control / infarct volume compared with controls (significance): 48 h
Protocol: Control animals were injected with the vehicle for the test compounds. Survival was maintained for 48 hrs. The cortical infarction sizes were used as endpoints for efficacy evaluation.
Animal Preparation and Middle Cerebral Artery Occlusion. Male, adult, Sprague-Dawley rats (Charles River), weighing 300-400 grams, were used for the study. All animals were acclimated at least for five days before entering the study. Animals were housed in a standard animal facility and fed with commercial rodent chow ad libitum. All animals were anesthetized via intramuscular injection (4 mL/kg) of “cocktail” containing ketamine (25 mg/mL), xylazine (1.3 mg/mL) and acepromazine (0.33 mg/mL). Both carotid arteries were separated with great caution to minimize the vagal nerve stimulation. The right proximal MCA trunk was exposed through a subtemporal craniectomy without transecting the facial nerve. […] Immediately following MCA occlusion, both of the common carotid arteries were occluded for 1 hour using surgical aneurysm micro-clips (ROBOZ INC). Animals were put into temperature regulated recovery chamber for 1 hour before the clips were removed from the common carotid arteries. Body temperature was maintained at 37±0.5° C. during the surgery using a heating blanket connected to a temperature controller.
Compound Administration and Storage. In a blinded random investigation, all animals were injected with the compound(s) or vehicle via S.C. as bolus injection at 2 hours pre, 1 hour post and 24 hours post-MCAo.
Infarct Measurement. Forty-eight hours following MCAo, animals were euthanized with inhalation of CO2. Brains were removed and chilled in ice saline for 10 min. The brains were put in a metal rodent brain slicer. Each rat brain was cut coronally into 7 sections, with each section being 2 mm thick. The brain sections were immersed in 2% TTC solution for 30 min at 37° C. The areas of cerebral infarcts were determined on seven slices, using a computer-interfaced imaging system, Image-Pro® Plus, Version 4.4 for Windows (Media Cybernetics, MD). Infarct areas were then summed among slices and multiplied by slice thickness to give the total infarct volume.
Statistics. All data are expressed as mean±SEM. Infarct volume was analyzed using Student t Test. A p value of ≦0.05 was considered a statistically significant difference. All statistical analyses were performed with the software package JMP version 4.0 (SAS Institute Inc., Cary, N.C.).

[1] = tested on: focal cerebral infarcts (MCAo); test: Forelimb placing test, Tamura MCAo model; type: in vivo, rat; conditions: AVG, 0=normal, 10=maximally impaired
Source text: (§1) Surgical Preparation. Middle Cerebral Artery Occlusion (MCAo), Tamura Model. Focal cerebral infarcts were made by permanent occlusion of the proximal right middle cerebral artery using a modification of the method of Tamura et al. […] The temporalis muscle was bisected and reflected through an incision made midway between the eye and the eardrum canal. The proximal MCA was exposed through a subtemporal craniectomy without removing the zygomatic arch and without transecting the facial nerve. […] Animals were euthanatized at various time periods after MCA occlusion and the brains are removed for histological analysis. Behavioral Analysis. Two behavioral tests were performed, the limb placing and body swing test. […] Limb Placing. The limb placing tests were divided into both forelimb and hindlimb tests. For the forelimb-placing test, the examiner held the rat close to a tabletop and scored the rat's ability to place the forelimb on the tabletop in response to whisker, visual, tactile, or proprioceptive stimulation. Similarly, for the hindlimb placing test, the examiner assessed the rat's ability to place the hindlimb on the tabletop in response to tactile and proprioceptive stimulation. […] Typically, there was a slow and steady recovery of limb placing behavior during the first month after stroke. Experimental Groups and Compound Administration. A total of 80 animals underwent MCAo using subcutaneous administration of all test articles, according to the experimental design illustrated in Table 16. […] All animals were treated with the compound(s)/vehicle(s) as a blinded random investigation. The dose and route of administration is given below in Table 16.

[2] = tested on: focal cerebral infarcts (MCAo); test: Hindlimb placing test, Tamura MCAo model; type: in vivo, rat; conditions: AVG, 0=normal, 6=maximally impaired
Source text: as §1

[3] = tested on: focal cerebral infarcts (MCAo); test: Body swing test, Tamura MCAo model; type: in vivo, rat; set-up: unit not given here; conditions: AVG
Source text: Surgical Preparation. Middle Cerebral Artery Occlusion (MCAo), Tamura Model. Focal cerebral infarcts were made by permanent occlusion of the proximal right middle cerebral artery using a modification of the method of Tamura et al. […] The temporalis muscle was bisected and reflected through an incision made midway between the eye and the eardrum canal. The proximal MCA was exposed through a subtemporal craniectomy without removing the zygomatic arch and without transecting the facial nerve. […] Animals were euthanatized at various time periods after MCA occlusion and the brains are removed for histological analysis. Behavioral Analysis. Two behavioral tests were performed, the limb placing and body swing test. […] Body Swing Test. The animal was held approximately 1 inch from the base of its tail. It was then elevated to an inch above a surface of a table. The animal was held in the vertical axis, defined as no more than 10° to either the left or the right side. A swing was recorded whenever the animal moves its head out of the vertical axis to either side. Before attempting another swing, the animal must return to the vertical position for the next swing to be counted. Thirty total swings were counted. A normal animal typically has an equal number of swings to either side. Following focal stroke, the animal tends to swing to the contralateral side. There is a slow spontaneous recovery of body swing during the first month after stroke. Experimental Groups and Compound Administration. A total of 80 animals underwent MCAo using subcutaneous administration of all test articles, according to the experimental design illustrated in Table 16. […] All animals were treated with the compound(s)/vehicle(s) as a blinded random investigation. The dose and route of administration is given below in Table 16.

[4] = administered six hours after MCAo
[5] = administered three hours after MCAo

CC(C)c1c(C(=O)Nc2ccccc2)c(-c2ccccc2)c(-c2ccc(F)cc2)n1CC(O)C(O)C(O)C(O)CO (stereo not drawn) [Compound 782236]
Infarct Volume (focal cerebral ischemia; 1 mg/kg SC at 2 h pre, listed as A): 71.32±36.98 mm^3
reduction in infarct volume from control (focal cerebral ischemia; 1 mg/kg SC): 53%
animals died within the 24-hour period after the second injection (focal cerebral ischemia; 10 mg/kg SC): Three
mortality rate (focal cerebral ischemia; 10 mg/kg SC): 60%
Forelimb placing test score, D0 [1, 4]: 0
Forelimb placing test score, D1 [1, 4]: 9.2
Forelimb placing test score, D3 [1, 4]: 8.9
Forelimb placing test score, D7 [1, 4]: 7
Forelimb placing test score, D0 [1, 5]: 0
Forelimb placing test score, D1 [1, 5]: 8.4
Forelimb placing test score, D3 [1, 5]: 6.7
Forelimb placing test score, D7 [1, 5]: 5.9
Hindlimb placing test score, D0 [2, 4]: 0
Hindlimb placing test score, D1 [2, 4]: 4.7
Hindlimb placing test score, D3 [2, 4]: 4
Hindlimb placing test score, D7 [2, 4]: 3.3
Hindlimb placing test score, D0 [2, 5]: 0
Hindlimb placing test score, D1 [2, 5]: 4.6
Hindlimb placing test score, D3 [2, 5]: 4
Hindlimb placing test score, D7 [2, 5]: 3.2
Body swing test score, D0 [3, 4]: 50
Body swing test score, D1 [3, 4]: 7
Body swing test score, D3 [3, 4]: 9
Body swing test score, D7 [3, 4]: 23
Body swing test score, D0 [3, 5]: 50
Body swing test score, D1 [3, 5]: 8
Body swing test score, D3 [3, 5]: 27
Body swing test score, D7 [3, 5]: 37

CC(C)c1c(C(=O)Nc2ccccc2)c(-c2ccccc2)c(-c2ccc(F)cc2)n1CC[C@@H](O)C[C@@H](O)CC(=O)O [atorvastatin, reference compound]
Infarct Volume (focal cerebral ischemia; 1 mg/kg SC at 2 h pre): 158.06 ± 32.83 mm^3
infarct volume compared with controls (significance) (focal cerebral ischemia; 1 mg/kg SC): not significantly different from controls
Infarct Volume (focal cerebral ischemia; 10 mg/kg SC at 2 h pre): 124.71 ± 17.31 mm^3
infarct volume compared with controls (significance) (focal cerebral ischemia; 10 mg/kg SC): not significantly different from controls
Forelimb placing test score, D0 [1, 4]: 0
Forelimb placing test score, D1 [1, 4]: 8.8
Forelimb placing test score, D3 [1, 4]: 8.8
Forelimb placing test score, D7 [1, 4]: 8
Forelimb placing test score, D0 [1, 5]: 0
Forelimb placing test score, D1 [1, 5]: 9.2
Forelimb placing test score, D3 [1, 5]: 7.3
Forelimb placing test score, D7 [1, 5]: 5.6
Hindlimb placing test score, D0 [2, 4]: 0
Hindlimb placing test score, D1 [2, 4]: 5.9
Hindlimb placing test score, D3 [2, 4]: 4.9
Hindlimb placing test score, D7 [2, 4]: 3.5
Hindlimb placing test score, D0 [2, 5]: 0
Hindlimb placing test score, D1 [2, 5]: 5.6
Hindlimb placing test score, D3 [2, 5]: 4.3
Hindlimb placing test score, D7 [2, 5]: 2.8
Body swing test score, D0 [3, 4]: 50
Body swing test score, D1 [3, 4]: 19
Body swing test score, D3 [3, 4]: 17
Body swing test score, D7 [3, 4]: 19
Body swing test score, D0 [3, 5]: 50
Body swing test score, D1 [3, 5]: 13
Body swing test score, D3 [3, 5]: 28
Body swing test score, D7 [3, 5]: 41

CC(C)c1[nH]c(-c2ccc(F)cc2)c(-c2ccccc2)c1C(=O)Nc1ccccc1 [Compound 781430]
Infarct Volume (focal cerebral ischemia; 1 mg/kg SC at 2 h pre): 152.83 ± 13.78 mm^3
infarct volume compared with controls (significance) (focal cerebral ischemia; 1 mg/kg SC): not significantly different from controls
Infarct Volume (focal cerebral ischemia; 10 mg/kg SC at 2 h pre, listed as B): 65.99±25.01 mm^3
reduction in infarct volume from control (focal cerebral ischemia; 10 mg/kg SC): 57%
Forelimb placing test score, D0 [1, 4]: 0
Forelimb placing test score, D1 [1, 4]: 8.9
Forelimb placing test score, D3 [1, 4]: 8.5
Forelimb placing test score, D7 [1, 4]: 6
Forelimb placing test score, D0 [1, 5]: 0
Forelimb placing test score, D1 [1, 5]: 8.9
Forelimb placing test score, D3 [1, 5]: 7.6
Forelimb placing test score, D7 [1, 5]: 4.3
Hindlimb placing test score, D0 [2, 4]: 0
Hindlimb placing test score, D1 [2, 4]: 5.3
Hindlimb placing test score, D3 [2, 4]: 3.5
Hindlimb placing test score, D7 [2, 4]: 3
Hindlimb placing test score, D0 [2, 5]: 0
Hindlimb placing test score, D1 [2, 5]: 4.1
Hindlimb placing test score, D3 [2, 5]: 2.8
Hindlimb placing test score, D7 [2, 5]: 2.1
Body swing test score, D0 [3, 4]: 50
Body swing test score, D1 [3, 4]: 19
Body swing test score, D3 [3, 4]: 22
Body swing test score, D7 [3, 4]: 23
Body swing test score, D0 [3, 5]: 50
Body swing test score, D1 [3, 5]: 31
Body swing test score, D3 [3, 5]: 43
Body swing test score, D7 [3, 5]: 44
